The values below come from patent US20230008571A1, “CYCLIC COMPOUNDS FOR TREATING CARDIOVASCULAR DISORDERS AND WOUNDS” (University of South Florida, priority 2021, published 2023).

This test addresses T1, EGFR (Homo sapiens, UniProt P00533).
T1 construct: A549 cells were chosen due to their elevated expression of EGFR; endogenous in cells; host or cells: A549
Briefly: Western blot of EGF-induced EGFR phosphorylation in A549 cells. In kind it is cell-based. Here is the method: A549 cells were chosen due to their elevated expression of EGFR.
A549 cells were seeded into a 6-well plate at a concentration of 1×10^5 cells/well. After 12 h attachment at 37° C. and 5% CO2, the cells were starved overnight in serum-reduced DMEM followed by treatment with different concentration of M-2-2 for 4 h. […] Subsequently, the cells were incubated on ice for 10 min and centrifuged at 14,000×g at 4° C. for 10 min. […] The experiments were conducted in triplicates and repeated for three times.
On the technique in general: A western blot detects proteins with antibodies after separation by electrophoresis.

T1 sequence (P00533 25-1210): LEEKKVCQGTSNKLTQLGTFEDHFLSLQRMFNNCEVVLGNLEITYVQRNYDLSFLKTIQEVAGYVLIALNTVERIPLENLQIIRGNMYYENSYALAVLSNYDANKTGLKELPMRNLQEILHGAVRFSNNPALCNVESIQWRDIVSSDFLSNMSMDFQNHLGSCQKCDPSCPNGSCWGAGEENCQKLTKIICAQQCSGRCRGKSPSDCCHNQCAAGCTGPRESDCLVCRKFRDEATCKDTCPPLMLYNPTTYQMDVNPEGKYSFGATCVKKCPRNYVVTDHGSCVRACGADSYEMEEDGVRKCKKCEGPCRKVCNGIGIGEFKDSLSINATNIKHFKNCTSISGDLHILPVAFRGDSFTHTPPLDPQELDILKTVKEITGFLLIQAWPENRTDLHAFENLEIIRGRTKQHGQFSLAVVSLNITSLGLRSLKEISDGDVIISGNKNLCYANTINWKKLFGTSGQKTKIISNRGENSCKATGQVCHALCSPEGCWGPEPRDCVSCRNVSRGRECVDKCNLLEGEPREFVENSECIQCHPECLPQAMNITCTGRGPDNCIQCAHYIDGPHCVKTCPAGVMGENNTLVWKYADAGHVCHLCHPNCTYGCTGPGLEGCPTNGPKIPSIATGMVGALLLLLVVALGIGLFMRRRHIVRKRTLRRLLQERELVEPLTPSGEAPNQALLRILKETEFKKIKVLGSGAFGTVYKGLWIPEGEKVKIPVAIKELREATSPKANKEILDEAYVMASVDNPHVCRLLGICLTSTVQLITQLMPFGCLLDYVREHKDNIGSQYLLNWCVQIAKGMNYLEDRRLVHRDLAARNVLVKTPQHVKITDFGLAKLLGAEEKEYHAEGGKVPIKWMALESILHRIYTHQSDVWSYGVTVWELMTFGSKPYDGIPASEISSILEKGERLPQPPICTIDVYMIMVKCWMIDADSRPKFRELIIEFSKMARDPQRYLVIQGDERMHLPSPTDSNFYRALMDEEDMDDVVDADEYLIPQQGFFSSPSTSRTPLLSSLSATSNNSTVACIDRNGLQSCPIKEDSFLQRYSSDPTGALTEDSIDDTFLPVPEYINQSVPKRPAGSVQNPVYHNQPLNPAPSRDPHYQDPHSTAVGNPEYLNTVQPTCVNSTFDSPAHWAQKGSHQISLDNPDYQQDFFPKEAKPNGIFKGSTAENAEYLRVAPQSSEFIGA

Regarding `CC[C@H]1CN(C(=O)CCC2CCCCC2)CC(=O)N[C@@H](CC)CN(C(=O)Cc2ccc3c(c2)OCO3)CC(=O)N[C@@H](CC(C)C)CN(CC(N)=O)C(=O)CCSCc2ccc(cc2)C(=O)N[C@@H](CC(C)C)CN(C(=O)Cc2ccc3c(c2)OCO3)CC(=O)N1` [M-2-2], the “effect on phosphorylation level of EGFR (P-EGFR) in the presence of EGF” value (starved A549 cells, 20 μM, 4 h pretreatment, then 100 ng/mL EGF, western blot, P-EGFR/GAPDH) is listed as “enhance the activation of EGFR”. Also, under “western blot with anti-phosphorylated AKT and ERK, concentration not given”, the “effect on downstream signal transduction of EGF stimulated EGFR” value is given as “enhance”.
